How the values were obtained:
Type in all cases: cell-based, mouse
[1] = tested on: Arg1-EYFP BMDMs co-cultured with oTME cells
Description: FIGS. 6A-6H show a genome-wide pooled M2-like education screen in primary macrophages. […] Gene hits in EYFP″g BMDMs are highlighted in red. Distribution of LFC values (red lines) across all four sgRNAs of select gene targets (right). […] Arg1-EYFP BMDMs were co-cultured with oTME cells for 7 days, and then were treated with Abemaciclib (5, 10 μM) or DMSO for additional 7 days and analyzed by flow cytometry for EYFP (n=4 replicates). Data are shown as mean±SD., 2-tailed unpaired Student's t-test. […] Arg1-EYFP BMDMs were treated for 7 days with a cytokines cocktail consists of IL-4 (10 ng/mL), IL-13(80ng/mL), M-CSF(10 ng/mL) or with M-CSF alone as control (supplemented every 3 days). Cells were then treated with Abemaciclib (5 μM) or DMSO for additional 7 days and analyzed by flow cytometry for EYFP (n=3 replicates). Data are shown as mean±SD., 2-tailed unpaired Student's t-test. […] Cells then treated with PF-431369 (5 uM) or DMSO for additional 7 days. On day 14, cells were fixed and stained for Arg1 and CD206 and analyzed by flow cytometry. (n=3 replicates). Data are shown as mean±SD., 2-tailed unpaired Student's t-test. […]
Flow Cytometry and Fluorescence-Activated Cell Sorting (FACS): Flow cytometry data were collected using BD LSRFortessa, BD FACSCanto II, and BD FACSAria III was used for FACS-sort. […]

[2] = tested on: IL-4/IL-13-treated macrophages (BMDMs); test: Arg1 expression in IL-4/IL-13-treated macrophages (absence of oTME cells), flow cytometry
[3] = tested on: oTME macrophages (BMDMs); test: γ-secretase inhibition: Ki67 in M2-educated (oTME) macrophages, flow cytometry
Description: BMDMs were co-cultured with oTME cells for 7 days and treated either with CompE ([…]) or DMSO as a control for additional 10 days. Cells were analyzed by flow cytometry for Ki67, F4/80, and CD11b. Data (n=3) are shown as mean±SD., 2-way ANOVA test, Bonferroni-corrected. FIG. 17D is a pre-clinical study design. […] Tumor sizes were recorded by caliper and shown as mean±SD., 2-way ANOVA test, Bonferroni-corrected. At the trial endpoint, lungs were collected and stained with H&E (right). […] At study endpoint, tumor transplants from (FIG. 17E) were scored for Ki67 in macrophages and in tumor cells (PyMT; mT^neg CD45^neg). Data are shown as mean±SD., 2-way ANOVA test, Bonferroni-corrected. Macrophage abundance quantified as percent of CD45+ cells. Data are shown as mean±SD., Mann-Whitney test. […]

[4] = tested on: BMDMs plated with oTME cells; test: EdU incorporation in macrophages following 48 hrs oTME education in the presence of Tyk2 inhibitors; conditions: BMS-986165, 10 μM vs DMSO, EdU 10 μM
From the text: FIGS. 3A-3H show the time course single-cell RNAseq analysis of macrophage TME-education. […] Cells were profiled after 2 and 10 days with the 10× Chromium single-cell RNA-seq platform. […] The figure legend is the same as FIG. 3B. FIG. 3D is a heatmap showing macrophage education expression dynamics of M-CSF-treated (n=214), early (day 2, n=235), late (day 10, n=301) genes. The cells are sorted and split into 20 equal-width bins by the education pseudo-time, average expression level (row-wise Z-score; color scale) of education signature genes (rows) across each bin (columns) is shown. The figure legend is the same as FIG. 3B. […] Genes are dotted and colored by logFC levels (color scale), the size of each dot represents the difference in the fraction of detection between the two groups. The p values were determined by Wilcoxon Rank Sum test. Vertical dotted lines represent ±0.75 logFC. Horizontal dotted lines represent p value of 0.01 (−log10 scale). […] Each dot represents an average of cells in 50 equal-width bins on the education pseudo-time axis, same as FIG. 3E. […] EdU incorporation was analyzed by flow cytometry (n=4 replicates). […]
EdU Incorporation: Cells were incubated with 10μM EdU (5-ethynyl-2′-deoxyuridine) without changing conditioned growth medium for the required duration and analyzed by flow cytometry according to the manufacturer's instructions (A10202; Thermo Fisher Scientific). […]

With `CCN1CCN(Cc2ccc(Nc3ncc(F)c(-c4cc(F)c5nc(C)n(C(C)C)c5c4)n3)nc2)CC1` [abemaciclib, N-[5-[(4-ethylpiperazin-1-yl)methyl]pyridin-2-yl]-5-fluoro-4-(7-fluoro-2-methyl-3-propan-2-ylbenzimidazol-5-yl)pyrimidin-2-amine] the Arg1-EYFP expression ([1]; oTME-educated Arg1-EYFP BMDMs, Abemaciclib (5, 10 μM) or DMSO for additional 7 days) was “dose-dependent reduction” and the Arg1-EYFP expression ([2]; IL-4/IL-13/M-CSF for 7 days, then Abemaciclib (5 μM) or DMSO for additional 7 days) was “suppressed”.
In the case of `CN(c1ccccc1CNc1nc(Nc2ccc3c(c2)CC(=O)N3)ncc1C(F)(F)F)S(C)(=O)=O` [PF-431396], the Arg1 expression ([1]; oTME macrophages, 10 μM or DMSO for additional 7 days, EYFP by flow cytometry) is reported as “robust suppression” and the Arg1 expression ([2]; IL-4/IL-13-treated macrophages, 5 uM or DMSO for additional 7 days, stained for Arg1 and CD206) is reported as “robust suppression”.
In the case of `C[C@H](NC(=O)Cc1cc(F)cc(F)c1)C(=O)N[C@H]1N=C(c2ccccc2)c2ccccc2N(C)C1=O` [Compound-E], the “reduction in Ki67 positivity” value ([3]; 7 days co-culture, then CompE or DMSO for additional 10 days) is reported as 89.6±3.8% and the “expression of F4/80” value ([3]; oTME macrophages after treatment) is reported as “increased”.
In the case of `[2H]C([2H])([2H])NC(=O)c1nnc(NC(=O)C2CC2)cc1Nc1cccc(-c2ncn(C)n2)c1OC` [Tyk2 inhibitors, 6-(cyclopropanecarbonylamino)-4-[2-methoxy-3-(1-methyl-1,2,4-triazol-3-yl)anilino]-N-(trideuteriomethyl)pyridazine-3-carboxamide], the “EdU incorporation in oTME macrophages” value [4] is reported as “significantly decreased”.

Source: patent publication US20240043539A1, “METHODS OF INDUCING AN IMMUNOMODULATORY TUMOR RESPONSE” (CORNELL UNIVERSITY, priority 2020, published 2024)
